Measured values from US11648254B2 (Kumquat Biosciences Inc., priority 2021, dated 2023).
pIC50: −log10 of the molar value. Where two headings read alike, the source gives them in different places.

How the values were obtained:
SOS1 = SOS1 (Homo sapiens (Human), UniProt Q07889); experiment: Ras-SOS interaction assay (HTRF); format: biochemical
[1] = tested on: MIA PaCa-2 cells (K-Ras G12C); experiment: Ras-SOS cellular growth inhibition assay (CellTiter-Glo, 3D); format: cell-based; details: Homo sapiens
In short: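 MIA PaCa-2 cells grown in ultra-low-attachment plates (3D) in DMEM/Ham's F12 with 10% FCS and 2.5% horse serum, treated the day after seeding with a 9-point 3-fold compound series for about 5 days. Viability by CellTiter-Glo luminescence; IC50 from four-parameter fit.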

[2] = tested on: NCI-H1975 cells (EGFR T790M L858R); experiment: EGFR-SOS cellular inhibition assay (CellTiter-Glo, 3D); format: cell-based; details: Homo sapiens
[3] = K-RasG13D utilized, read-out: IC50 inhibition of SOS
[4] = K-RasG13D, read-out: IC50 value against SOS1
[5] = MIA PaCa-2, 120 h, MIA PaCa-2, 3D proliferation, about 5 days, read-out: Bio-Cell-Prolif-3D (MiaPaca2 IC50)
[6] = 120 h, NCI-H1975, 3D proliferation, about 5 days, read-out: Bio-Cell-Prolif-3D (H1975 IC50)
[7] = MIA PaCa-2, MIA PaCa-2, read-out: IC50 in inhibiting MIA PaCa-2 cell growth
[8] = NCI-H1975, EGFR T790M L858R, read-out: IC50 in inhibiting growth of NCI-H1975 cell line

SOS1, sequence (Q07889 564-1049): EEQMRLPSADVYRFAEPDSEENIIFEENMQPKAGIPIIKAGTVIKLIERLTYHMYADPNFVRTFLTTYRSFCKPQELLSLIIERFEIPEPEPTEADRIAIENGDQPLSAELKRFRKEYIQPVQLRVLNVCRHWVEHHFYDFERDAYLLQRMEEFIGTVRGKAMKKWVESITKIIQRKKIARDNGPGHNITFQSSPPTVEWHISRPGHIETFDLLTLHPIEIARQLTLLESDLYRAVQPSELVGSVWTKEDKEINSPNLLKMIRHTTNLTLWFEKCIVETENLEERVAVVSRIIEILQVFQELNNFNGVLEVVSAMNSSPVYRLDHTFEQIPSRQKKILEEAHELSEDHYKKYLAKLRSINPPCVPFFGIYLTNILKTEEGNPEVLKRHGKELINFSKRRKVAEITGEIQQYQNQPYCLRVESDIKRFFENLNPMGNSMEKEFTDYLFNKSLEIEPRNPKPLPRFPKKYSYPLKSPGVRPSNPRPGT

Row | pIC50 (SOS1; [3]) | pIC50 (SOS1; [4]) | pIC50 [1, 5] | pIC50 [2, 6] | pIC50 [1, 7] | pIC50 [2, 8] | SMILES
1 | > 7.00 | > 7.30 | ≥ 6.00 | ≥ 6.00 | – | – | Cc1nc(N[C@H](C)c2cccc(C(F)F)c2F)c2cc(C3CCS(=O)(=O)CC3)c(OC3COC3)nc2n1 [Compound 229, (R)-4-(4-((1-(3-(difluoromethyl)-2-fluorophenyl)ethyl)amino)-2-methyl-7-(oxetan-3-yloxy)pyrido[2,3-d]pyrimidin-6-yl)tetrahydro-2H-thiopyran 1,1-dioxide]
2 | > 7.00 | > 7.30 | ≥ 6.00 | 5.00 to 6.00 | – | – | C[C@@H](Nc1ncnc2nc(OC3COC3)c(N3CCS(=O)(=O)CC3)cc12)c1cccc(C(F)F)c1F [Compound 231, (R)-4-(4-((1-(3-(difluoromethyl)-2-fluorophenyl)ethyl)amino)-7-(oxetan-3-yloxy)pyrido[2,3-d]pyrimidin-6-yl)thiomorpholine 1,1-dioxide]
3 | > 7.00 | > 7.30 | ≥ 6.00 | ≥ 6.00 | > 6.30 | > 6.30 | Cc1nc(N[C@H](C)c2cccc(C(F)F)c2F)c2cc(C3(C#N)CC3)c(OC3CCN(C)CC3)nc2n1 [Compound 232, (R)-1-(4-((1-(3-(difluoromethyl)-2-fluorophenyl)ethyl)amino)-2-methyl-7-((1-methylpiperidin-4-yl)oxy)pyrido [2,3-d]pyrimidin-6-yl)cyclopropane-1-carbonitrile]
4 | > 7.00 | > 7.30 | ≥ 6.00 | ≥ 6.00 | > 6.30 | > 6.30 | Cc1nc(N[C@H](C)c2cccc(C(F)F)c2F)c2cc(C3(C#N)CC3)c(O[C@H]3CCN(C)C3)nc2n1 [Compound 233, 1-(4-(((R)-1-(3-(difluoromethyl)-2-fluorophenyl)ethyl)amino)-2-methyl-7-(((S)-1-methylpyrrolidin-3-yl)oxy)pyrido [2,3-d]pyrimidin-6-yl)cyclopropane-1-carbonitrile]
5 | > 7.00 | > 7.30 | ≥ 6.00 | ≥ 6.00 | – | > 6.30 | Cc1nc(N[C@H](C)c2cccc(C(F)F)c2F)c2cc(C3(C#N)CC3)c(OC[C@H]3CCCN3C)nc2n1 [Compound 235, 1-(4-(((R)-1-(3-(difluoromethyl)-2-fluorophenyl)ethyl)amino)-2-methyl-7-(((R)-1-methylpyrrolidin-2-yl)methoxy)pyrido [2,3-d]pyrimidin-6-yl)cyclopropane-1-carbonitrile]
6 | > 7.00 | > 7.30 | ≥ 6.00 | ≥ 6.00 | > 6.30 | > 6.30 | COc1nc2nc(C)nc(N[C@H](C)c3cccc(C(F)(F)CCC4CN(C(C)C)C4)c3F)c2cc1C1CCS(=O)(=O)CC1 [Compound 238, (R)-4-(4-((1-(3-(1,1-difluoro-3-(1-isopropylazetidin-3-yl)propyl)-2-fluorophenyl)ethyl)amino)-7-methoxy-2-methylpyrido[2,3-d]pyrimidin-6-yl)tetrahydro-2H-thiopyran 1,1-dioxide]
7 | > 7.00 | > 7.30 | ≥ 6.00 | ≥ 6.00 | > 6.30 | > 6.30 | COc1nc2nc(C)nc(N[C@H](C)c3cccc(C(F)(F)CO)c3)c2cc1C1CCS(=O)(=O)CC1 [Compound 239, (R)-4-(4-((1-(3-(1,1-difluoro-2-hydroxyethyl)phenyl)ethyl)amino)-7-methoxy-2-methylpyrido[2,3-d]pyrimidin-6-yl)tetrahydro-2H-thiopyran 1,1-dioxide]
8 | 6.00 to 7.00 | – | ≥ 6.00 | ≥ 6.00 | > 6.30 | > 6.30 | COc1nc2nc(OC3CN(C(C)C)C3)nc(N[C@H](C)c3cccc(C(F)F)c3F)c2cc1C1(C#N)CC1 [Compound 240, (R)-1-(4-((1-(3-(difluoromethyl)-2-fluorophenyl)ethyl)amino)-2-((1-isopropylazetidin-3-yl)oxy)-7-methoxypyrido[2,3-d]pyrimidin-6-yl)cyclopropane-1-carbonitrile]
